In PubChem BioAssay (NCI):
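Growth conditions: 96-well plates. Treatment: test compound, 48 hours, 5 concentrations. Analysis: linear interpolation between bracketing concentrations; unreached endpoints set to highest concentration. Abbreviation: GI50, concentration required for 50% inhibition of growth. TGI is the concentration that stops growth completely.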

Key:
Assay in all cases: NCI-60 cell line screen, 48 h
NCI/ADR-RES ovarian = tested on: NCI/ADR-RES ovarian
OVCAR-3 ovarian = tested on: OVCAR-3 ovarian
TK-10 renal = tested on: TK-10 renal
CAKI-1 renal = tested on: CAKI-1 renal
OVCAR-4 ovarian = tested on: OVCAR-4 ovarian
NCI-H226 lung = tested on: NCI-H226 lung
SW-620 colon = tested on: SW-620 colon
COLO 205 colon = tested on: COLO 205 colon
MDA-MB-435 = tested on: MDA-MB-435
RXF 393 renal = tested on: RXF 393 renal
K-562 leukemia = tested on: K-562 leukemia
SK-OV-3 ovarian = tested on: SK-OV-3 ovarian
IGROV1 ovarian = tested on: IGROV1 ovarian
SF-268 CNS = tested on: SF-268 CNS
MALME-3M melanoma = tested on: MALME-3M melanoma
CCRF-CEM leukemia = tested on: CCRF-CEM leukemia
HL-60(TB) leukemia = tested on: HL-60(TB) leukemia
786-0 renal = tested on: 786-0 renal
NCI-H522 lung = tested on: NCI-H522 lung
UACC-257 melanoma = tested on: UACC-257 melanoma
M14 melanoma = tested on: M14 melanoma
T-47D breast = tested on: T-47D breast
EKVX NSCLC = tested on: EKVX NSCLC
KM12 colon = tested on: KM12 colon
RPMI-8226 leukemia = tested on: RPMI-8226 leukemia
MDA-MB-231 breast = tested on: MDA-MB-231 breast
MCF7 breast = tested on: MCF7 breast
NCI-H23 lung = tested on: NCI-H23 lung
HS 578T breast = tested on: HS 578T breast
MDA-MB-468 breast = tested on: MDA-MB-468 breast
SK-MEL-28 melanoma = tested on: SK-MEL-28 melanoma
UO-31 renal = tested on: UO-31 renal
U251 CNS = tested on: U251 CNS
SN12C renal = tested on: SN12C renal
A498 renal = tested on: A498 renal
HOP-62 NSCLC = tested on: HOP-62 NSCLC
A549 NSCLC = tested on: A549 NSCLC
HCT-15 colon = tested on: HCT-15 colon
ACHN renal = tested on: ACHN renal
HCT-116 colon = tested on: HCT-116 colon
PC-3 prostate = tested on: PC-3 prostate
BT-549 breast = tested on: BT-549 breast
OVCAR-5 ovarian = tested on: OVCAR-5 ovarian
SNB-75 CNS = tested on: SNB-75 CNS
MOLT-4 leukemia = tested on: MOLT-4 leukemia
UACC-62 melanoma = tested on: UACC-62 melanoma
HOP-92 NSCLC = tested on: HOP-92 NSCLC
OVCAR-8 ovarian = tested on: OVCAR-8 ovarian
DU-145 prostate = tested on: DU-145 prostate
SK-MEL-2 melanoma = tested on: SK-MEL-2 melanoma
LOX IMVI melanoma = tested on: LOX IMVI melanoma
SK-MEL-5 melanoma = tested on: SK-MEL-5 melanoma
SF-295 CNS = tested on: SF-295 CNS
SNB-19 CNS = tested on: SNB-19 CNS
HCC-2998 colon = tested on: HCC-2998 colon
NCI-H460 lung = tested on: NCI-H460 lung
SF-539 CNS = tested on: SF-539 CNS

Cc1occc1C(=O)NN1C(=O)/C(=C/C=C/c2ccc([N+](=O)[O-])o2)SC1=S
GI50 (NCI/ADR-RES ovarian): 2.55 µM
TGI (NCI/ADR-RES ovarian): 7.46 µM
GI50 (OVCAR-3 ovarian): 1.59 µM
TGI (OVCAR-3 ovarian): 3.07 µM
GI50 (TK-10 renal): 3.47 µM
TGI (TK-10 renal): 9.99 µM
GI50 (CAKI-1 renal): 1.82 µM
TGI (CAKI-1 renal): 4.01 µM
GI50 (OVCAR-4 ovarian): 2.76 µM
TGI (OVCAR-4 ovarian): 10.1 µM
GI50 (NCI-H226 lung): 2.02 µM
TGI (NCI-H226 lung): 5.09 µM
GI50 (SW-620 colon): 1.11 µM
TGI (SW-620 colon): 2.65 µM
GI50 (COLO 205 colon): 1.62 µM
TGI (COLO 205 colon): 3.23 µM
GI50 (MDA-MB-435): 1.93 µM
TGI (MDA-MB-435): 4.26 µM
GI50 (RXF 393 renal): 1.71 µM
TGI (RXF 393 renal): 3.2 µM
GI50 (K-562 leukemia): 0.586 µM
TGI (K-562 leukemia): 7.28 µM
GI50 (SK-OV-3 ovarian): 5.82 µM
TGI (SK-OV-3 ovarian): 18.7 µM
GI50 (IGROV1 ovarian): 1.85 µM
TGI (IGROV1 ovarian): 3.56 µM
GI50 (SF-268 CNS): 2.49 µM
TGI (SF-268 CNS): 6.95 µM
GI50 (MALME-3M melanoma): 1.5 µM
TGI (MALME-3M melanoma): 3.23 µM
GI50 (CCRF-CEM leukemia): 1.41 µM
TGI (CCRF-CEM leukemia): 8.47 µM
GI50 (HL-60(TB) leukemia): 2.64 µM
TGI (HL-60(TB) leukemia): 11.6 µM
GI50 (786-0 renal): 2.01 µM
TGI (786-0 renal): 4.19 µM
GI50 (NCI-H522 lung): 1.65 µM
TGI (NCI-H522 lung): 3.21 µM
GI50 (UACC-257 melanoma): 2.05 µM
TGI (UACC-257 melanoma): 5.1 µM
GI50 (M14 melanoma): 1.51 µM
TGI (M14 melanoma): 2.93 µM
GI50 (T-47D breast): 2.17 µM
TGI (T-47D breast): 5.57 µM
GI50 (EKVX NSCLC): 1.83 µM
TGI (EKVX NSCLC): 4 µM
GI50 (KM12 colon): 2.22 µM
TGI (KM12 colon): 6.21 µM
GI50 (RPMI-8226 leukemia): 1.67 µM
TGI (RPMI-8226 leukemia): 7.51 µM
GI50 (MDA-MB-231 breast): 1.51 µM
TGI (MDA-MB-231 breast): 2.97 µM
GI50 (MCF7 breast): 1.5 µM
TGI (MCF7 breast): 5 µM
GI50 (NCI-H23 lung): 1.78 µM
TGI (NCI-H23 lung): 3.6 µM
GI50 (HS 578T breast): 2.44 µM
TGI (HS 578T breast): 7.46 µM
GI50 (MDA-MB-468 breast): 1.62 µM
TGI (MDA-MB-468 breast): 3.27 µM
GI50 (SK-MEL-28 melanoma): 1.85 µM
TGI (SK-MEL-28 melanoma): 3.63 µM
GI50 (UO-31 renal): 1.51 µM
TGI (UO-31 renal): 2.96 µM
GI50 (U251 CNS): 1.89 µM
TGI (U251 CNS): 4.62 µM
GI50 (SN12C renal): 1.65 µM
TGI (SN12C renal): 3.96 µM
GI50 (A498 renal): 19.4 µM
TGI (A498 renal): 33.6 µM
GI50 (HOP-62 NSCLC): 3.37 µM
TGI (HOP-62 NSCLC): 11.7 µM
GI50 (A549 NSCLC): 4.82 µM
TGI (A549 NSCLC): 21.1 µM
GI50 (HCT-15 colon): 0.645 µM
TGI (HCT-15 colon): 2.24 µM
GI50 (ACHN renal): 1.73 µM
TGI (ACHN renal): 3.23 µM
GI50 (HCT-116 colon): 1.06 µM
TGI (HCT-116 colon): 2.54 µM
GI50 (PC-3 prostate): 2.79 µM
TGI (PC-3 prostate): 10.2 µM
GI50 (BT-549 breast): 1.77 µM
TGI (BT-549 breast): 3.29 µM
GI50 (OVCAR-5 ovarian): 1.86 µM
TGI (OVCAR-5 ovarian): 3.68 µM
GI50 (SNB-75 CNS): 1.66 µM
TGI (SNB-75 CNS): 7.48 µM
GI50 (MOLT-4 leukemia): 2.13 µM
TGI (MOLT-4 leukemia): 8.32 µM
GI50 (UACC-62 melanoma): 1.36 µM
TGI (UACC-62 melanoma): 2.77 µM
GI50 (HOP-92 NSCLC): 2.56 µM
TGI (HOP-92 NSCLC): 5.59 µM
GI50 (OVCAR-8 ovarian): 2.5 µM
TGI (OVCAR-8 ovarian): 10.9 µM
GI50 (DU-145 prostate): 3.11 µM
TGI (DU-145 prostate): 10.1 µM
GI50 (SK-MEL-2 melanoma): 1.73 µM
TGI (SK-MEL-2 melanoma): 3.56 µM
GI50 (LOX IMVI melanoma): 1.26 µM
TGI (LOX IMVI melanoma): 2.55 µM
GI50 (SK-MEL-5 melanoma): 1.64 µM
TGI (SK-MEL-5 melanoma): 3.13 µM
GI50 (SF-295 CNS): 6.19 µM
TGI (SF-295 CNS): 18.8 µM
GI50 (SNB-19 CNS): 5.47 µM
TGI (SNB-19 CNS): 18 µM
GI50 (HCC-2998 colon): 1.89 µM
TGI (HCC-2998 colon): 3.69 µM
GI50 (NCI-H460 lung): 1.79 µM
TGI (NCI-H460 lung): 3.66 µM
GI50 (SF-539 CNS): 1.72 µM
TGI (SF-539 CNS): 3.3 µM
